Source: patent US8044052B2, “Biaryl ether urea compounds” (Pfizer Inc., priority 2006, dated 2011)
Structures can show the parent of a compound that is named as a salt.

Biological target: T1, Human FAAH (Homo sapiens, UniProt O00519)
T1 construct: made in house
T1 sequence (O00519 1-579): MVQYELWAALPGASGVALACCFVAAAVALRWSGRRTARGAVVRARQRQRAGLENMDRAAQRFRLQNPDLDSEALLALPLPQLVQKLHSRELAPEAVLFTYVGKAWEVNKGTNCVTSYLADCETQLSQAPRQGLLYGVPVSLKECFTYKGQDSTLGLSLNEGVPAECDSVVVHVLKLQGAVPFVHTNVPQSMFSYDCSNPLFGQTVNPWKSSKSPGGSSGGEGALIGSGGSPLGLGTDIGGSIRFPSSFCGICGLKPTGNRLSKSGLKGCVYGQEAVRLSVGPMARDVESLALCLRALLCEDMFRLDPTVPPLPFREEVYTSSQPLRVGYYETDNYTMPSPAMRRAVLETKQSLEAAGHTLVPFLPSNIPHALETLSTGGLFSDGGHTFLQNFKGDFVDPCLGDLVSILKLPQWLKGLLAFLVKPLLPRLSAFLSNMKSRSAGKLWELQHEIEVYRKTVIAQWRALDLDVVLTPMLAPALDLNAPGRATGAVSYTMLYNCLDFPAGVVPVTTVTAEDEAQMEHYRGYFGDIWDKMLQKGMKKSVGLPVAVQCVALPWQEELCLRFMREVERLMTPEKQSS
Test: FAAH assay (glutamate dehydrogenase-coupled, oleamide substrate, absorbance at 340 nm)
Format: biochemical
Conditions: irreversible inhibition, 1-4 nM FAAH, pH 7.4, 30° C., 90 min

Compound | hFAAH kinact/Ki
O=C(Nc1ccc2cc[nH]c2n1)N1CCC(=Cc2cccc(Oc3ccc(C(F)(F)F)cn3)c2)CC1 [Example 13, N-1H-pyrrolo[2,3-b]pyridin-6-yl-4-(3-{[5-(trifluoromethyl)pyridin-2-yl]oxy}benzylidene) piperidine-1-carboxamide] | 3870 M⁻¹ s⁻¹
N-(pyridin-3-yl)-4-(3-[{phenyl-2-yl]oxy}benzylidene)piperidine-1-carboxamide [Example 31] | 931 M⁻¹ s⁻¹
N-pyridin-4-yl-4-(3-{[5-(trifluoromethyl)pyridin-2-yl]oxy}benzylidene)piperidine-1-carboxamide trifluoroacetate [Example 76] | 2390 M⁻¹ s⁻¹

Same assay, conditions: irreversible inhibition, 1-4 nM FAAH, pH 7.4, 30° C., 90 min, read-out: hFAAH kinact/Ki

Compound | kinact/KI
O=C(Nc1cc(CO)ccn1)N1CCC(=Cc2cccc(Oc3ccc(C(F)(F)F)cn3)c2)CC1 [Example 83, N-[4-(hydroxymethyl)pyridin-2-yl]-4-(3-{[5-(trifluoromethyl)pyridin-2-yl]oxy}benzylidene)piperidine-1-carboxamide trifluoroacetate] | 356 M⁻¹ s⁻¹
Cc1cccc(Oc2cccc(C=C3CCN(C(=O)Nc4cccnn4)CC3)c2)n1 [Example 41, 4-(3-(6-methylpyridin-2-yloxy)benzylidene)-N-(pyridazin-3-yl)piperidine-1-carboxamide] | 687 M⁻¹ s⁻¹
O=C(NC(=O)N1CCC(=Cc2cccc(Oc3ccc(C(F)(F)F)cn3)c2)CC1)c1ccccn1 [Example 15, N-{[4-(3-{[5-(trifluoromethyl)pyridin-2-yl]oxy}benzylidene)piperidin-1-yl]carbonyl}pyridine-2-carboxamide] | 12900 M⁻¹ s⁻¹
O=C(Nc1ccc(Cl)nn1)N1CCC(=Cc2cccc(Oc3ccc(C(F)(F)F)cn3)c2)CC1 [Example 84, N-(6-chloropyridazin-3-yl)-4-(3-{[5-(trifluoromethyl)pyridin-2-yl]oxy}benzylidene)piperidine-1-carboxamide] | 5590 M⁻¹ s⁻¹
O=C(Nc1cccnn1)N1CCC(=Cc2cc(Oc3ccc(C(F)(F)F)cn3)cc(C3CC3)c2)CC1 [Example 64, 4-(3-cyclopropyl-5-(5-(trifluoromethyl)pyridin-2-yloxy)benzylidene)-N-(pyridazin-3-yl)piperidine-1-carboxamide] | 417 M⁻¹ s⁻¹
Cn1ccc(NC(=O)N2CCC(=Cc3cccc(Oc4ccc(C(F)(F)F)cn4)c3)CC2)n1 [Example 77, N-(1-methyl-1H-pyrazol-3-yl)-4-(3-{[5-(trifluoromethyl)pyridin-2-yl]oxy}benzylidene)piperidine-1-carboxamide] | 339 M⁻¹ s⁻¹
O=C(Nc1cccnc1)N1CCC(=Cc2cccc(Oc3ccc(N4CCCC4)cn3)c2)CC1 [Example 86, 4-(3-(5-(pyrrolidin-1-yl)pyridin-2-yloxy)benzylidene)-N-(pyridin-3-yl)piperidine-1-carboxamide] | 856 M⁻¹ s⁻¹
O=C(Nc1cccnc1)N1CCC(=C(Br)c2cccc(Oc3ccc(C(F)(F)F)cn3)c2)CC1 [Example 66, 4-(bromo(3-(5-(trifluoromethyl)pyridin-2-yloxy)phenyl)methylene)-N-(pyridin-3-yl)piperidine-1-carboxamide] | 1560 M⁻¹ s⁻¹
Cc1cnc(Oc2cccc(C=C3CCN(C(=O)Nc4cccnn4)CC3)c2)nc1 [Example 109, 4-{3-[(5-methylpyrimidin-2-yl)oxy]benzylidene}-N-pyridazin-3-ylpiperidine-1-carboxamide] | 1240 M⁻¹ s⁻¹
O=C(Nc1cccnn1)N1CCC(=Cc2cccc(Oc3ncc(Br)cn3)c2)CC1 [Example 37, 4-(3-(5-bromopyrimidin-2-yloxy)benzylidene)-N-(pyridazin-3-yl)piperidine-1-carboxamide] | 15100 M⁻¹ s⁻¹
O=C(Nc1cnoc1)N1CCC(=Cc2cccc(Oc3ccc(C(F)(F)F)cn3)c2)CC1 [Example 75, N-isoxazol-4-yl-4-(3-{[5-(trifluoromethyl)pyridin-2-yl]oxy}benzylidene)piperidine-1-carboxamide] | 3620 M⁻¹ s⁻¹
Cc1cc(C(F)(F)F)cc(Oc2cccc(C=C3CCN(C(=O)Nc4cccnn4)CC3)c2)n1 [Example 116, 4-(3-{[6-methyl-4-(trifluoromethyl)pyridin-2-yl]oxy}benzylidene)-N-pyridazin-3-ylpiperidine-1-carboxamide] | 40.8 M⁻¹ s⁻¹
Cc1ccc(C=C2CCN(C(=O)Nc3cccnc3)CC2)cc1Oc1ccc(C(F)(F)F)cn1 [Example 60, 4-(4-methyl-3-(5-(trifluoromethyl)pyridin-2-yloxy)benzylidene)-N-(pyridin-3-yl)piperidine-1-carboxamide] | 1580 M⁻¹ s⁻¹
Cc1cc(C=C2CCN(C(=O)Nc3cccnc3)CC2)cc(Oc2ccc(C(F)(F)F)cn2)c1 [Example 61, 4-(3-methyl-5-(5-(trifluoromethyl)pyridin-2-yloxy)benzylidene)-N-(pyridin-3-yl)piperidine-1-carboxamide] | 2130 M⁻¹ s⁻¹
O=C(Nc1cccnn1)N1CCC(=Cc2cccc(Oc3ncc(F)cn3)c2)CC1 [Example 108, 4-{3-[(5-fluoropyrimidin-2-yl)oxy]benzylidene}-N-pyridazin-3-ylpiperidine-1-carboxamide] | 1120 M⁻¹ s⁻¹
CCc1ccnc(NC(=O)N2CCC(=Cc3cccc(Oc4ccc(C(F)(F)F)cn4)c3)CC2)c1 [Example 141, N-(4-ethylpyridin-2-yl)-4-(3-{[5-(trifluoromethyl)pyridin-2-yl]oxy}benzylidene)piperidine-1-carboxamide] | 117 M⁻¹ s⁻¹
Cc1ccc(NC(=O)N2CCC(=Cc3cccc(Oc4ccc(C(F)(F)F)cn4)c3)CC2)cn1 [Example 3, N-(6-methylpyridin-3-yl)-4-(3-{[5-(trifluoromethyl)pyridin-2-yl]oxy}benzylidene)piperidine-1-carboxamide] | 7800 M⁻¹ s⁻¹
C#CCCCOc1ccc(Oc2cccc(C=C3CCN(C(=O)Nc4cccnn4)CC3)c2)nc1 [Example 90, 4-(3-(5-(pent-4-ynyloxy)pyridin-2-yloxy)benzylidene)-N-(Pyridazin-3-yl)piperidine-1-carboxamide] | 7600 M⁻¹ s⁻¹
O=C(Nc1cnc(-c2ccccc2)cn1)N1CCC(=Cc2cccc(Oc3ccc(C(F)(F)F)cn3)c2)CC1 [Example 21, N-(5-phenyl-pyrazin-2-yl)-4-(3-{[5-(trifluoromethyl)pyridin-2-yl]oxy}benzylidene)piperidine-1-carboxamide] | 1850 M⁻¹ s⁻¹
O=C(Nc1cccnn1)N1CCC(=Cc2cccc(Oc3ccc(C(=O)N4CCOCC4)cn3)c2)CC1 [Example 117, 4-(3-{[5-(morpholin-4-ylcarbonyl)pyridin-2-yl]oxy}benzylidene)-N-pyridazin-3-ylpiperidine-1-carboxamide] | < 12.4 M⁻¹ s⁻¹
Cc1cncc(NC(=O)N2CCC(=Cc3cccc(Oc4ccc(C(F)(F)F)cn4)c3)CC2)c1 [Example 7, N-(5-methylpyridin-3-yl)-4-(3-{[5-(trifluoromethyl)pyridin-2-yl]oxy}benzylidene)piperidine-1-carboxamide] | 2880 M⁻¹ s⁻¹
Cc1noc(C)c1NC(=O)N1CCC(=Cc2cccc(Oc3ccc(C(F)(F)F)cn3)c2)CC1 [Example 133, N-(3,5-dimethylisoxazol-4-yl)-4-(3-{[5-(trifluoromethyl)pyridin-2-yl]oxy}benzylidene)piperidine-1-carboxamide] | 36.8 M⁻¹ s⁻¹
COc1ccc(NC(=O)N2CCC(=Cc3cccc(Oc4ccc(C(F)(F)F)cn4)c3)CC2)nn1 [Example 26, N-(6-methoxypyridazin-3-yl)-4-(3-{[5-(trifluoromethyl)pyridin-2-yl]oxy}benzylidene)piperidine-1-carboxamide] | 11000 M⁻¹ s⁻¹
